According to patent USRE42072E1, “Compositions and methods for enhancing receptor-mediated cellular internalization” (The Penn State Research Foundation, priority 1996, dated 2011):
Like-named read-outs stand apart in the source and are kept apart here. Each block holds one compound with its values, some of them ahead of it.

Key:
[1] = Bioavailability of peptides after vaginal administration to sheep, relative to intravenous injection; settings: female, sheep, in vivo
Experimental: (§1) First, a peptide that undergoes receptor-mediated transport across the vaginal epithelium was identified by studying the permeation of peptides of varying molecular weight in a sheep model. Peptides were delivered vaginally to sheep in 5 ml of aqueous or methocel solutions with typical peptide concentrations of 10-40 μg/ml. A group of 18 intact ewes were utilized for these experiments. For each study, sheep were randomly assigned to a treatment group. In GnRH studies where each animal received all possible treatment combinations, each animal was assigned to an initial treatment group at random and subsequently randomly to each of the remaining treatment groups. A minimum of 5 days (typically 10 or more days) was allowed between experiments on a given animal, to provide sufficient time for complete recovery of pituitary responsiveness to the highest doses of the GnRH agonist used A 16G 150 mm jugular catheter (Abbocath-T, Abbott Laboratories, Chicago, Ill.) was inserted and blood samples collected at 0, 30, 60, 90, 120, 180, 240, 360, 480 and 1440 min. after treatment. Luteinizing hormone (LH) levels were determined.
LHRH analog was placed in methyl cellulose solutions (“methocels”) of varying apparent viscosity. […] First, 200 μg of leuprolide acetate in 5 ml of aqueous solutions with melhocel weight concentrations varying between 0% and 3.0% were vaginally administered.
The enhanced bioavailability of LHRH also coincides with a longer-term release into the systemic circulation at the optimal methocel concentrations. […] To test this hypothesis, the efficacy of a second, physically cross-linked hydrogel that was believed would not enhance endocytosis, but whose apparent viscosity (in the range of hydrogel concentrations 0.0-5.5%) was similar to that of the methocels (in the range 0.0-3.0%) was examined.

luteinizing hormone (LH) [2] = assay: Chronic daily vaginal dosing of DES in gel to suppress LH secretion, ovariectomized sheep without steroids; format: in vivo; settings: no steroid
Experimental: The objective was to determine if chronic vaginal dosing with 200 μg of deslorelin (“DES”) in gel would be able to suppress secretion of LH. […] doses of DES will result in the down-regulation of the anterior pituitary gland in sheep. Ovariectomized sheep were used for the study, since they secrete high levels of LH in the-absence of ovarian steroids. The sheep were dosed daily with DES in 5 mL of gel, or gel only for 17 days. A single blood sample was collected by jugular venipuncture. Plasma was collected and assayed for LH.

luteinizing hormone (LH) [3] = assay: Daily vaginal DES in progesterone-primed ovariectomized ewes: basal LH and pituitary responsiveness; format: in vivo, sheep
Experimental: The objective of this study was to determine if daily vaginal administration of DES in progesterone-primed ewes would cause a reduction in basal LH secretion and loss of pituitary responsiveness of GnRH. Six ovariectomized ewes were used for the study. Vaginal CIDR devices containing progesterone were inserted. Twenty-four hours later, ewes were dosed daily with 200 μg of DES (GnRH agonist) in 5 mL of gel. Each day, blood samples were collected at 0 and 120 minutes post-treatment. These times were selected in order to evaluate changes in basal secretion of LH (time 0) and the peak LH response following GnRH administration (time 120).

luteinizing hormone (LH) [4] = assay: CIDR device control study: LH release after vaginal DES; format: in vivo, sheep
Experimental: Another study provided information about the role of the silastic CIDR device itself in the delivery process. The study was based on concern that the CIDR might be damaging the vaginal mucosa, allowing for GnRH transport by a non-selective mechanism. CIDR devices were inserted into six ewes. Five days later, all ewes were treated vaginally with DES. […] After the initial dosing, three ewes were treated with DES and three with gel alone every day for 18 days. At the end of the 18-day treatment period, all ewes were again treated with DES in gel. […] Consequently, by the time the second DES administration was given, the CIDR devices had been in place for approximately 24 days. The ewes therefore were no longer receiving adequate amounts of progesterone locally to maintain the vaginal transport system.

luteinizing hormone (LH) [5] = assay: LH release after DES in gel in ewes given systemic depot progesterone and ear implants of synthetic progestogen; format: in vivo, sheep
Experimental: An attempt was made to treat ewes with progesterone using the systemic administration of a depot form of progesterone and ear implants of a synthetic progestogen. Pituitary release of LH was poor following the vaginal administration of DES in gel. When LH release in these animals was not observed, the gel from the same preparations used vaginally was injected subcutaneously. LH release was then obtained, confirming that the DES/gel preparations contained biologically active material. Given the consistent responses obtained in earlier experiments and those obtained more recently using the CIDR delivery system, it was concluded that the progesterone (generally) should be applied directly to the vagina in order to achieve sufficient local concentrations. Given that luteal phase sheep also respond well, systemic administration of greater amounts of progesterone than used here, in formulations that will maintain consistently high concentrations in the blood, should also work.

luteinizing hormone (LH) [6] = format: in vivo, sheep
Experimental: Ewes (n=12) were treated with progesterone using a vaginal CIDR device. In addition, six sheep received a 15 mm silastic implant of estradiol. Five days later, all sheep were treated vaginally with 200 μg of DES in gel. Blood samples were taken every 30 minutes for 2 hours following treatment and then every 60 minutes for an additional four hours.

serum cortisol = assay: Serum cortisol response to iv injection and vaginal administration of vasopressin; format: in vivo, sheep
Experimental: FIGS. 1a and 1b are graphs showing serum responses to iv injection and vacinal administration of vasopressin and leuprolide acetate. […] Vasopressin was injected intravenously ([…]) through a jugular catheter. The peptide was delivered vaginally in 5 ml of aqueous solution (200 g does). Standard errors are based on n=6. […] LHRH analog was injected intravenously ([…]) into through a jugular catheter. The peptide was delivered vaginally in 5 ml of aqueous solution (200 g dose). Standard errors are based on n=6.
as §1
To determine whether membrane damage might explain the results shown in FIG. 2, vasopressin was vaginally administered in methocel solutions of 1.5 and 1.75%.

bioavailability [1]: < 0.1%
SMILES: CC(C)C[C@H](NC(=O)[C@H](CCCCN)NC(=O)CNC(=O)[C@H](CC(C)C)NC(=O)[C@@H](NC(=O)[C@@H]1CSSC[C@H](N)C(=O)N[C@@H](CO)C(=O)N[C@@H](CC(N)=O)C(=O)N[C@@H](CC(C)C)C(=O)N[C@@H](CO)C(=O)N[C@@H]([C@@H](C)O)C(=O)N1)C(C)C)C(=O)N[C@@H](CO)C(=O)N[C@@H](CCC(N)=O)C(=O)N[C@@H](CCC(=O)O)C(=O)N[C@@H](CC(C)C)C(=O)N[C@@H](Cc1c[nH]cn1)C(=O)N[C@@H](CCCCN)C(=O)N[C@@H](CC(C)C)C(=O)N[C@@H](CCC(N)=O)C(=O)N[C@H](C(=O)N[C@@H](Cc1ccc(O)cc1)C(=O)N1CCC[C@H]1C(=O)N[C@@H](CCCNC(=N)N)C(=O)N[C@H](C(=O)N[C@@H](CC(N)=O)C(=O)N[C@H](C(=O)NCC(=O)N[C@@H](CO)C(=O)NCC(=O)N[C@H](C(=O)N1CCC[C@H]1C(N)=O)[C@@H](C)O)[C@@H](C)O)[C@@H](C)O)[C@@H](C)O [salmon calcitonin]

lag time between vaginal administration and transport of sufficient amounts into the blood to cause LH release (luteinizing hormone (LH) [6]; in vivo): 70 to 80 min
SMILES: CCNC(=O)[C@@H]1CCCN1C(=O)[C@H](CCCN=C(N)N)NC(=O)[C@H](CC(C)C)NC(=O)[C@@H](Cc1c[nH]c2ccccc12)NC(=O)[C@H](Cc1ccc(O)cc1)NC(=O)[C@H](CO)NC(=O)[C@H](Cc1c[nH]c2ccccc12)NC(=O)[C@H](Cc1cnc[nH]1)NC(=O)[C@@H]1CCC(=O)N1 [DES, deslorelin]
average LH concentrations, DES versus control (gel only) group (luteinizing hormone (LH) [2]; 200 μg daily vaginally in 5 mL gel for 17 days): no differences | LH secretion (luteinizing hormone (LH) [2]; between days 6 and 12 of daily vaginal dosing): slightly suppressed | ewes in which the change in LH between 0 and 120 minutes was greatest on the first day of administration (luteinizing hormone (LH) [3]; 200 μg daily vaginally in 5 mL gel, progesterone-primed ovariectomized ewes): 3 of 6 | ewes that transport GnRH (luteinizing hormone (LH) [3]; after four days of exposure to progesterone): ~100% | ewes with significant transport (luteinizing hormone (LH) [3]; after only 24 hours of exposure to progesterone): Approximately 50% | basal LH (luteinizing hormone (LH) [3]; progesterone-primed ewes, daily treatment, time 0 sample (FIG. 8)): significant decreases | pituitary responsiveness with continued daily treatment (luteinizing hormone (LH) [3]; progesterone-primed ewes, first-treatment LH differential set to 100% (FIG. 7)): significantly reduced | time over which the change in LH secretion continued to increase after initiation of treatment (luteinizing hormone (LH) [3]; the two remaining animals of six): 5 to 7 days | pituitary responsiveness once the maximum response was achieved (luteinizing hormone (LH) [3]; the two remaining animals of six (Ewe 9)): rapidly declined | ewes that displayed a robust release of LH (luteinizing hormone (LH) [4]; DES in gel at end of 18-day period, CIDR in place approximately 24 days): none | ewes with a robust release of LH (luteinizing hormone (LH) [4]; vaginal treatment five days after CIDR insertion): Five of the six | LH release (luteinizing hormone (LH) [5]; same gel preparation injected subcutaneously): obtained | pituitary release of LH (luteinizing hormone (LH) [5]; vaginal administration in gel, systemic depot progesterone and progestogen ear implants): poor | ewes that responded with a robust discharge of LH (luteinizing hormone (LH) [6]; 200 μg vaginally in gel, 5 days after progesterone CIDR with or without estradiol implant, n=12): All ewes | time of peak LH (luteinizing hormone (LH) [6]; ewes treated only with progesterone): 120 min | time of peak LH (luteinizing hormone (LH) [6]; ewes treated with progesterone and estradiol): 240 min

SMILES: NC(=O)CC[C@@H]1NC(=O)[C@H](Cc2ccccc2)NC(=O)[C@H](Cc2ccc(O)cc2)NC(=O)[C@@H](N)CSSC[C@@H](C(=O)N2CCC[C@H]2C(=O)N[C@@H](CCCN=C(N)N)C(=O)NCC(N)=O)NC(=O)[C@H](CC(N)=O)NC1=O [vasopressin]
bioavailability ([1]; 200 μg, vaginal administration in an aqueous buffer, leuprolide value based on biological response, read-out: bioavailability): < 0.1% | systemic cortisol levels (serum cortisol; intravenous injection, within the first hour following treatment): high systemic cortisol levels | changes in concentrations of cortisol (serum cortisol; vaginal administration in methocel solutions of 1.5 and 1.75%): no detectable changes | change in systemic cortisol levels (serum cortisol; vaginal administration, aqueous solution (FIG. 1a)): no detectable change
